From ChEMBL document CHEMBL1129324, “Tyrphostins. 5. Potent inhibitors of platelet-derived growth factor receptor tyrosine kinase: structure-activity relationships in quinoxalines, quinolines, and indole tyrphostins” (J Med Chem, 1996)

Target: Platelet-derived growth factor receptor (Mus musculus, UniProt P05622+P26618)
Test: Inhibitory activity against platelet-derived growth factor receptor tyrosine kinase in Swiss 3T3 cells
Type: cell-based

Row | IC50 [µM] | Compound
1 | 100 | c1ccc(-c2nc3ccccc3nc2-c2ccccn2)nc1
2 | > 50 | c1ccc(-c2nc3ccccc3nc2-c2ccccc2)cc1
3 | > 100 | c1ccc2nc(-c3c[nH]c4ccccc34)cnc2c1
4 | > 50 | Cc1cc2nc(CSCCOCCSCc3nc4cc(C)c(C)cc4nc3-c3ccccc3)c(-c3ccccc3)nc2cc1C
5 | > 100 | c1ccc(-c2ccc(-c3cnc4ccccc4n3)s2)cc1
6 | > 100 | c1coc(-c2nc3ccccc3nc2-c2ccco2)c1
7 | > 50 | Clc1cc2ncc(-c3ccccc3)nc2cc1Cl
8 | 35 | c1ccc(-c2cnc3ncccc3n2)cc1
9 | 0.6 | Cc1cc2ncc(-c3ccc(O)c(O)c3)nc2cc1C
10 | 1 | Cc1cc2nc(C(=O)O)c(-c3ccccc3)nc2cc1C
11 | > 100 | CC(C)CCc1ccc(-c2cnc3ccccc3n2)s1
12 | > 50 | Cc1cc2nc(CSCCCSCc3nc4cc(C)c(C)cc4nc3-c3ccccc3)c(-c3ccccc3)nc2cc1C
13 | > 100 | c1ccc2nc(-c3ccsc3)cnc2c1
14 | > 50 | Cc1cc2nc(CSCc3nc4cc(C)c(C)cc4nc3-c3ccccc3)c(-c3ccccc3)nc2cc1C
15 | > 50 | Cc1cc2nc3[nH]c4ccc(Br)cc4c3nc2cc1C
16 | > 50 | CCOP(=O)(Cc1nc2cc(C)c(C)cc2nc1-c1ccccc1)OCC
17 | > 50 | Cc1cc2nc(Cl)c(-c3ccccc3)nc2cc1C
18 | > 50 | Cc1cc2nc(C=O)c(-c3ccccc3)nc2cc1C
19 | 100 | COc1cc2nc(-c3ccccc3)cnc2cc1O
20 | > 100 | Cc1nc2ccccc2nc1C
21 | > 50 | Cc1cc2nc(C)c(C)nc2cc1C
22 | > 100 | Cc1cc2nc(-c3ccccn3)c(-c3ccccn3)nc2cc1C
23 | > 50 | CCOC(=O)c1nc2cc(C)c(C)cc2nc1-c1ccccc1

Row | IC50 [µM] | Compound
24 | 6 | O=C(c1ccccc1)c1ccc2ncc(-c3ccccc3)nc2c1
25 | > 50 | Cc1cc2nc(O)c(-c3ccccc3)[n+]([O-])c2cc1C
26 | 100 | c1csc(-c2cnc3ccccc3n2)c1
27 | > 50 | COc1cc2nc(O)c(-c3ccccc3)nc2cc1OC
28 | 90 | Cc1ccc2ncc(-c3ccccc3)nc2c1
29 | > 100 | Oc1cc2ncc(-c3ccccc3)nc2cc1O
30 | 25 | O=[N+]([O-])c1ccc2ncc(-c3ccccc3)nc2c1
31 | 0.9 | c1ccc(-c2cnc3cc4ccccc4cc3n2)cc1
32 | > 100 | c1coc(-c2cnc3ccccc3n2)c1
33 | 10 | c1ccc(-c2cnc3ccccc3n2)cc1
34 | 10 | Cc1cc2nc(O)c(-c3ccccc3)nc2cc1C
35 | > 100 | Cc1ccc(-c2cnc3ccccc3n2)s1
36 | > 50 | O=C(O)c1ccc2ncc(-c3ccccc3)nc2c1
37 | > 100 | Cc1nc2ccccc2nc1-c1ccccc1
38 | > 50 | CCOCc1nc2cc(C)c(C)cc2nc1-c1ccccc1
39 | > 50 | Cc1cc2nc(C)c(-c3ccccc3)nc2cc1C
40 | 0.8 | COc1cc2ncc(-c3ccccc3)nc2cc1OC
41 | > 50 | Nc1ncnc2ncc(-c3ccccc3)nc12
42 | > 50 | Cc1cc2nc(CN(C)C)c(-c3ccccc3)nc2cc1C
43 | > 50 | Cc1cc2nc(CP(=O)(O)O)c(-c3ccccc3)nc2cc1C
44 | > 50 | Cc1cc2nc(CBr)c(-c3ccccc3)nc2cc1C
45 | > 50 | O=c1nc2[nH]c3ccccc3nc-2c(=O)[nH]1 [ALLOXAZINE]
